{
  "source": "paper PMC7440668",
  "about": "“Nitrogen coordinated import and export of arginine across the yeast vacuolar membrane” (PLoS Genetics, 2020)",
  "type_in_all_cases": "biochemical",
  "key": {"Ypq2 [1]": {"target": "T1, Ypq2 (Saccharomyces cerevisiae, UniProt Q06328)", "T1 construct": "native full-length protein in isolated intact vacuoles; ypq1-2-3 triple-mutant background subtracted from ypq1-3 double-mutant", "T1 sequence (Q06328 1-317)": "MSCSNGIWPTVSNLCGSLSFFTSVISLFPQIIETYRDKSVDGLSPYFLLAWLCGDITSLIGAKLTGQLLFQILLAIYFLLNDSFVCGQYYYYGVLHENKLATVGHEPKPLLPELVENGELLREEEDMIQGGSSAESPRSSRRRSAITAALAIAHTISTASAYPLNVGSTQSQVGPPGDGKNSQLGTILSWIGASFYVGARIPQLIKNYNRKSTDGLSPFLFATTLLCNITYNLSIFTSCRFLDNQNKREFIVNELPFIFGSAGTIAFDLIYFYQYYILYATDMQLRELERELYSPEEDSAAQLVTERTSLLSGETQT", "experiment": "inhibition of Ypq2-dependent […]-Arg uptake into isolated vacuoles, […] min", "settings": "50 μM 14C-Arg, no ATP; competitor added simultaneously"}, "Ypq2 [2]": {"target": "T1, Ypq2", "experiment": "inhibition of Ypq2-dependent […]-Arg uptake into isolated vacuoles, […] min", "settings": "read-out: % inhibition at 5 mM"}, "Avt1": {"target": "T2, Avt1 (Saccharomyces cerevisiae, UniProt P47082)", "T2 construct": "native full-length protein in isolated intact vacuoles; wild type versus avt1 deletion mutant", "T2 sequence (P47082 1-602)": "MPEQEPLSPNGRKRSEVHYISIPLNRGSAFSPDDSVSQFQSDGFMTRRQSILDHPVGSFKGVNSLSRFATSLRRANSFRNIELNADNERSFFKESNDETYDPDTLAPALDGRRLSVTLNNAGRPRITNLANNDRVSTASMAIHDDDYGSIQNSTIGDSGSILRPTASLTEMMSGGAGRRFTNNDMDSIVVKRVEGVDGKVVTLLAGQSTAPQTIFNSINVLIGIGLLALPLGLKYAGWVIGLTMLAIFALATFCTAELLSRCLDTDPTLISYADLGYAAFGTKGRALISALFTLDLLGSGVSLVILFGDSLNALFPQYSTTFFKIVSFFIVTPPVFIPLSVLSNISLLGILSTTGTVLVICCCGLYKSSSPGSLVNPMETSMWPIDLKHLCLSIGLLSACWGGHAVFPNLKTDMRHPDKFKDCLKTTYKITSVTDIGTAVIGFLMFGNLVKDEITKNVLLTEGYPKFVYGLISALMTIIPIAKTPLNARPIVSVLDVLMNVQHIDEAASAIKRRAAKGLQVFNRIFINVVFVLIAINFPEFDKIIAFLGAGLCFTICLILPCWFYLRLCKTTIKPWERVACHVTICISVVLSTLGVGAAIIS", "experiment": "3H-L-tyrosine uptake into isolated intact vacuoles, wild type versus avt1 deletion", "settings": "50 μM 3H-tyrosine, 4 mM ATP, 27 °C; needs H+ gradient; labelled compound"}},
  "data": [
    {"molecule": "N=C(N)NOCC[C@H](N)C(=O)O", "note": "[Canavanine]", "values": [
      {"measurement": "% inhibition at 5 mM", "setting": "Ypq2 [1]", "value": "Canavanine, the D-Arg and the L- and D-isomers of His completely inhibited the uptake"}
    ]},
    {"molecule": "N=C(N)NCCC[C@@H](N)C(=O)O", "note": "[D-Arg]", "values": [
      {"measurement": "% inhibition at 5 mM", "setting": "Ypq2 [1]", "value": "Canavanine, the D-Arg and the L- and D-isomers of His completely inhibited the uptake"}
    ]},
    {"molecule": "N[C@H](Cc1c[nH]cn1)C(=O)O", "note": "[D-isomer of His]", "values": [
      {"measurement": "% inhibition at 5 mM", "setting": "Ypq2 [1]", "value": "Canavanine, the D-Arg and the L- and D-isomers of His completely inhibited the uptake"}
    ]},
    {"molecule": "N[C@@H](Cc1cnc[nH]1)C(=O)O", "note": "[His]", "values": [
      {"measurement": "% inhibition at 5 mM", "setting": "Ypq2 [1]", "value": "Canavanine, the D-Arg and the L- and D-isomers of His completely inhibited the uptake"}
    ]},
    {"molecule": "NCCCC[C@H](N)C(=O)O", "note": "[Lys]", "values": [
      {"measurement": "inhibition at 5000 µM", "setting": "Ypq2 [2]", "value": "~50", "unit": "%"}
    ]},
    {"molecule": "NCCC[C@H](N)C(=O)O", "note": "[ornithine]", "values": [
      {"measurement": "inhibition at 5000 µM", "setting": "Ypq2 [2]", "value": "~50", "unit": "%"}
    ]},
    {"molecule": "N[C@@H](Cc1ccc(O)cc1)C(=O)O", "note": "[tyrosine]", "values": [
      {"measurement": "3H-L-tyrosine uptake into isolated intact vacuoles, wild type versus avt1 deleti", "setting": "Avt1", "value": "Nor was it detected in vacuoles isolated from the avt1Δ mutant"}
    ]}
  ]
}
